Test results as given in PMC10485820 (European Journal of Pharmaceutical Sciences, 2023).
Read-outs that look alike come from different tables or passages of the source.

Experiments:
[1] = Apparent permeability in Caco-2 monolayer cell lines; assay type: in vitro ADME; settings: human, Caco-2, positive controls
Description: All experiments were performed in triplicate and analyzed by high-performance liquid chromatography with tandem mass spectrometry (HPLC-MS/MS). The apparent permeability coefficient (Papp) of each compound under the corresponding concentration was calculated according to Eq. (1) and listed as follows:(1) Papp=dQ/dt×1/A×C0 Where Papp was the apparent permeability coefficient (cm/s × 10^−6), dQ/dt (pmol/second) was the rate at which the compound appears in the receiver side, C0 (nM) was the initial concentration of the compound in the donor side, and A (cm^2) represented the surface area of the cell monolayer.

[2] = system: primary human plated hepatocytes; experiment: Metabolic stability in human plated hepatocytes; settings: incubation up to 48 h, HSK7653 at 0.05 μM
Description: Reactions were stopped by removing the plates from the incubator and mixing the incubation solution with 600 μL of ice-cold stop solution (acetonitrile) at the corresponding sampling time points.

Papp at 2 h ([1]; read-out: Papp) | Papp at 2 h ([1]; apical pH: basolateral pH 7.4: 7.4, read-out: Caco-2 permeability, calibration input) | Half-life (t1/2) in human hepatocytes [2] | Structure (SMILES)
1.85 ×10⁻⁶ cm/s |  |  | C[C@H]1O[C@@H](O[C@H]2[C@@H](O)C[C@H](O[C@H]3[C@@H](O)C[C@H](O[C@H]4CC[C@@]5(C)[C@H](CC[C@@H]6[C@@H]5C[C@@H](O)[C@]5(C)[C@@H](C7=CC(=O)OC7)CC[C@]65O)C4)O[C@@H]3C)O[C@@H]2C)C[C@H](O)[C@@H]1O [digoxin, reference compound]
33 ×10⁻⁶ cm/s | 33 ×10⁻⁶ cm/s |  | CC(C)NCC(O)COc1cccc2ccccc12 (stereo not shown) [propranolol, reference compound]
 |  | 21.7 h | CC[C@@]1(c2ccccc2)NC(=O)N(C)C1=O [S-mephenytoin]
